Source: publication PMC8272044, “5-Phenoxy Primaquine Analogs and the Tetraoxane Hybrid as Antimalarial Agents” (Molecules, 2021)
Like-named read-outs stand apart in the source and are kept apart here.

Assays:
[1] = Cytotoxicity by sulforhodamine B (SRB) colorimetric assay; assay type: cell-based, African green monkey; conditions: African green monkey, Vero cells, 72 h, SRB, mean ± SD of three repeats
Source text: (§1) A cytotoxicity test of selected analogs against African green monkey kidney fibroblast (Vero cells) was obtained from Bioassay Laboratory, BIOTEC, NSTDA, Thailand. They were maintained continuously in MEM/EBSS medium (Hyclone Laboratories Inc., South Logan, UT, USA), supplemented with 10% heated fetal bovine serum (GE Healthcare, PAA Laboratories GmbH, Pasching, Austria), 2.2 g/L Sodium bicarbonate (Emsure, Merck kGaA, Darmstadt, Germany), and 1% sodium pyruvate (Sigma). […] Then, the cells were fixed with 100 µL of 10% trichloroacetic acid (Sigma) at 4 °C for 45 min, washed, and dried at room temperature overnight. […] Finally, 200 µL of 10× Tris-base was added to each well to dissolve protein-bound dye. The OD was determined at a wavelength of 510 nm. The control media was used for overall background subtraction as 0% and untreated cells as 100% control without any cytotoxic effect. The IC50 value of each compound was determined from the dose–response curve.

[2] = test system: African green monkey kidney fibroblast (Vero cells); experiment: as above; assay type: cell-based; conditions: Vero CC50 / P. falciparum 3D7 IC50
Source text: as §1

hematin polymerization = experiment: Inhibition of hematin polymerization (heme polymerization assay); assay type: biochemical;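 on %Inh1: test concentrations in µM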;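 on %Inh2: test concentrations in µM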;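 on %Inh3: test concentrations in µM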
Protocol: The ability of the 5-phenoxy primaquine analogs to inhibit hematin polymerization was investigated using a protocol modified from the one described previously. […] After it was left standing for 15 min, Tween 20 (0.5 μM; Sigma) was added. […] The assay was performed in triplicate, and results were expressed as the percentage of inhibition relative to hemozoin formation in a negative control. The IC50 values were obtained from the sigmoidal dose–response curves using nonlinear regression curve fitting analyses with GraphPad Prism version 3.00 software. Each IC50 value is the result of at least three separate experiments.

P. falciparum 3D7 = experiment: In vitro blood antimalarial activity, malaria SYBR green I-based fluorescence (MSF) method; assay type: cell-based; conditions: Plasmodium falciparum; P. falciparum 3D7, blood stage, 48 h, mean ± SD of three biological repeats
Protocol: P. falciparum strain 3D7 (wild-type drug sensitive strain) was used in this study. This parasite was maintained continuously in vitro in human O+ erythrocytes (4% hematocrit) at 37 °C under 3% CO2 and 90% N2 in RPMI 1640 culture media (Life Technologies Limited, Paisley, UK) containing 2 mM L-Glutamine, 25 mM HEPES (Sigma), pH 7.4, 2g/L NaHCO3, 40 mg/L gentamicin, 0.37 mM hypoxanthine, and supplemented with 5 g/L Albumax I (Life Technologies, Grand Island, NY, USA). Every 3 to 4 days, the parasite culture was synchronized with 5% sorbitol and transferred into complete medium with uninfected erythrocytes. In vitro antimalarial activity was determined by using the malaria SYBR green I-based fluorescence (MSF) method. Briefly, 0.09 mL of cultured 1% ring-stage synchronized parasites and 2% hematocrit were transferred to individual wells of a standard 96-well microtiter plate and in vitro culture continued for 48 h, with 0.01 mL of compound at different concentration in each well. The compounds were first dissolved in DMSO and diluted with RPMI medium to 1% DMSO. The final concentration of DMSO in each well was 0.1%, which caused no effect on the parasite viability. Following 48 h, SYBR Green I solution (0.02 µL of 10,000X SYBR Green I/100 µL of buffer solution consisted of 20 mM Tris 20, pH 7.5, 5 mM EDTA, 0.008% w/v saponin and 0.08% v/v Triton X-100) was then added to each well, and fluorescence signals were measured by spectrofluorometer at ex485/em 535 nm. […] The result of each compound was normalized with control media for the overall background subtraction as 0% and untreated parasite with 0.1% DMSO as 100% control.

[3] = Vero cells (kidney fibroblasts)
[4] = pH 5.0, mean ± SD of three independent repeats, read-out: IC50, inhibition of hemozoin-initiated hematin polymerization
[5] = primary data, repeat 1, read-out: IC50, heme polymerization inhibition, repeat 1
[6] = primary data, repeat 2, read-out: IC50, heme polymerization inhibition, repeat 2
[7] = primary data, repeat 3, read-out: IC50, heme polymerization inhibition, repeat 3

Row | SMILES | IC50 (hematin polymerization; [4]) [µM] | IC50 (hematin polymerization; [5]) [µM] | %Inh1 (hematin polymerization; conc 2, repeat 1) [%] | %Inh2 (hematin polymerization; conc 2, repeat 2) [%] | %Inh3 (hematin polymerization; conc 2, repeat 3) [%] | %Inh1 (hematin polymerization; conc 10, repeat 1) [%] | %Inh2 (hematin polymerization; conc 10, repeat 2) [%] | %Inh3 (hematin polymerization; conc 10, repeat 3) [%] | %Inh1 (hematin polymerization; conc 50, repeat 1) [%] | %Inh2 (hematin polymerization; conc 50, repeat 2) [%] | %Inh3 (hematin polymerization; conc 50, repeat 3) [%] | %Inh1 (hematin polymerization; conc 100, repeat 1) [%] | %Inh2 (hematin polymerization; conc 100, repeat 2) [%] | %Inh3 (hematin polymerization; conc 100, repeat 3) [%] | %Inh1 (hematin polymerization; conc 200, repeat 1) [%] | %Inh2 (hematin polymerization; conc 200, repeat 2) [%] | %Inh3 (hematin polymerization; conc 200, repeat 3) [%] | %Inh1 (hematin polymerization; conc 400, repeat 1) [%] | %Inh2 (hematin polymerization; conc 400, repeat 2) [%] | %Inh3 (hematin polymerization; conc 400, repeat 3) [%] | also measured
1 | Cc1c2ccncc2c(C)c2c1[nH]c1ccccc12 [EPT, ellipticine, reference compound] |  |  |  |  |  |  |  |  |  |  |  |  |  |  |  |  |  |  |  |  | CC50 at 72 h [1]: 5.97 ± 0.14 µM
2 | COc1cc(NC(C)CCCNCCCCOc2ccc(C3CCC4(CC3)OOC3(OO4)C4CC5CC(C4)CC3C5)cc2)c2ncccc2c1Oc1ccccc1 (centres unmarked) [compound 12, N^1-(4-(4-((1r,3r,5r,7r)-Dispiro[adamantane-2,3′-[1,2,4,5]tetraoxane-6′,1″-cyclohexan]-4″-yl)phenoxy)butyl)-N^4-(6-methoxy-5-phenoxyquinolin-8-yl)pentane-1,4-diamine] | 66.9 ± 3.5 | 64.5 | 12.59 | 16.51 | 8.88 | 19.10 | 21.09 | 14.14 | 48.21 | 49.80 | 51.14 | 82.20 | 73.34 | 64.09 | 90.25 | 95.79 | 87.78 | 106.35 | 95.69 | 97.20 | CC50 at 72 h [1, 3]: 17.3 ± 0.36 µM; SI, selectivity index = CC50 on Vero cells / IC50 in the blood stage [2]: 45.61; IC50 (hematin polymerization; [6]): 64.3 µM; IC50 (hematin polymerization; [7]): 71.8 µM; IC50 (P. falciparum 3D7): 0.38 ± 0.11 µM
3 | CCN(CC)CCCC(C)Nc1ccnc2cc(Cl)ccc12 (centres unmarked) [CQ, chloroquine, reference compound] | 61.2 ± 1.3 | 61.3 | 14.98 | 12.22 | 11.21 | 19.21 | 27.67 | 27.09 | 49.80 | 36.78 | 59.78 | 84.80 | 81.20 | 70.36 | 96.36 | 72.73 | 85.74 | 105.70 | 94.31 | 97.41 | IC50 (hematin polymerization; [6]): 59.6 µM; IC50 (hematin polymerization; [7]): 62.8 µM

The next lines start with results.

Row | IC50 (hematin polymerization; [4]) [µM] | IC50 (hematin polymerization; [5]) [µM] | SMILES | %Inh1 (hematin polymerization; conc 2, repeat 1) [%] | %Inh2 (hematin polymerization; conc 2, repeat 2) [%] | %Inh3 (hematin polymerization; conc 2, repeat 3) [%] | %Inh1 (hematin polymerization; conc 10, repeat 1) [%] | %Inh2 (hematin polymerization; conc 10, repeat 2) [%] | %Inh3 (hematin polymerization; conc 10, repeat 3) [%] | %Inh1 (hematin polymerization; conc 50, repeat 1) [%] | %Inh2 (hematin polymerization; conc 50, repeat 2) [%] | %Inh3 (hematin polymerization; conc 50, repeat 3) [%] | %Inh1 (hematin polymerization; conc 100, repeat 1) [%] | %Inh2 (hematin polymerization; conc 100, repeat 2) [%] | %Inh3 (hematin polymerization; conc 100, repeat 3) [%] | %Inh1 (hematin polymerization; conc 200, repeat 1) [%] | %Inh2 (hematin polymerization; conc 200, repeat 2) [%] | %Inh3 (hematin polymerization; conc 200, repeat 3) [%] | %Inh1 (hematin polymerization; conc 400, repeat 1) [%] | %Inh2 (hematin polymerization; conc 400, repeat 2) [%] | %Inh3 (hematin polymerization; conc 400, repeat 3) [%] | also measured
4 | 167 ± 8.6 | 155 | COc1cc(NC(C)CCCN)c2ncccc2c1Oc1ccc(F)cc1 (centres unmarked) [7f, N^4-(5-(4-Fluorophenoxy)-6-methoxyquinolin-8-yl) pentane-1,4-diamine] | 6.02 | 1.81 | 11.52 | 14.36 | 7.54 | 9.67 | 18.94 | 24.82 | 18.18 | 36.82 | 32.41 | 35.89 | 67.61 | 72.28 | 73.29 | 89.47 | 91.81 | 104.26 | CC50 at 72 h [1, 3]: 47.5 ± 3.23 µM; SI, selectivity index = CC50 on Vero cells / IC50 in the blood stage [2]: 9.55; IC50 (hematin polymerization; [6]): 171 µM; IC50 (hematin polymerization; [7]): 175 µM; IC50 (P. falciparum 3D7): 4.97 ± 0.4 µM
5 | 175 ± 4.3 | 170 | COc1cc(NC(C)CCCN)c2ncccc2c1Oc1ccc(Br)cc1 (centres unmarked) [7c, N^4-(5-(4-Bromophenoxy)-6-methoxyquinolin-8-yl) pentane-1,4-diamine] | 7.63 | 6.63 | 1.36 | 8.52 | 5.82 | 7.32 | 12.67 | 18.23 | 10.74 | 31.46 | 32.12 | 38.23 | 63.35 | 63.64 | 61.57 | 90.44 | 88.93 | 90.95 | CC50 at 72 h [1, 3]: 42.2 ± 3.25 µM; SI, selectivity index = CC50 on Vero cells / IC50 in the blood stage [2]: 6.00; IC50 (hematin polymerization; [6]): 181 µM; IC50 (hematin polymerization; [7]): 175 µM; IC50 (P. falciparum 3D7): 7.03 ± 1.31 µM
6 | 132 ± 5.3 | 135 | COc1cc(NC(C)CCCN)c2ncccc2c1Oc1ccc(Cl)cc1 (centres unmarked) [7d, N^4-(6-Methoxy-5-(4-chlorophenoxy)quinolin-8-yl)pentane-1,4-diamine] | 7.78 | 6.26 | 2.78 | 12.08 | 17.37 | 9.55 | 28.15 | 20.53 | 25.95 | 39.02 | 49.70 | 40.32 | 81.92 | 79.27 | 75.78 | 96.57 | 99.33 | 91.32 | CC50 at 72 h [1, 3]: 46.4 ± 5.68 µM; SI, selectivity index = CC50 on Vero cells / IC50 in the blood stage [2]: 5.66; IC50 (hematin polymerization; [6]): 125 µM; IC50 (hematin polymerization; [7]): 137 µM; IC50 (P. falciparum 3D7): 8.2 ± 0.83 µM
7 | 102 ± 4.1 | 105 | COc1cc(NC(C)CCCN)c2ncccc2c1Oc1ccccc1 (centres unmarked) [7a, N^4-(6-Methoxy-5-phenoxyquinolin-8-yl)pentane-1,4-diamine] | 0.76 | 8.32 | 5.77 | 4.28 | 12.65 | 9.75 | 19.81 | 31.60 | 24.35 | 50.68 | 59.92 | 49.55 | 89.17 | 88.25 | 88.23 | 101.81 | 100.63 | 95.73 | CC50 at 72 h [1, 3]: 37.5 ± 5.24 µM; SI, selectivity index = CC50 on Vero cells / IC50 in the blood stage [2]: 10.27; IC50 (hematin polymerization; [6]): 96 µM; IC50 (hematin polymerization; [7]): 104 µM; IC50 (P. falciparum 3D7): 3.65 ± 0.39 µM
8 | 154 ± 6.4 | 154 | COc1cc(NC(C)CCCN)c2ncccc2c1Oc1ccc(C(N)=O)cc1 (centres unmarked) [7h, 4-((8-((5-Aminopentan-2-yl)amino)-6-methoxyquinolin-5-yl)oxy)benzamide] | 6.92 | 2.87 | 14.16 | 8.33 | 17.48 | 18.60 | 22.32 | 30.21 | 30.28 | 39.91 | 44.86 | 40.80 | 66.71 | 77.84 | 84.25 | 87.23 | 92.60 | 103.26 | CC50 at 72 h [1, 3]: > 100 µM; SI, selectivity index = CC50 on Vero cells / IC50 in the blood stage [2]: >7.41; IC50 (hematin polymerization; [6]): 162 µM; IC50 (hematin polymerization; [7]): 146 µM; IC50 (P. falciparum 3D7): 13.5 ± 1.57 µM
